# Experimental data from patent US20080003438A1, “Heterocyclic siloxanes for use in biocidal coatings and materials” (Auburn University, priority 2002, published 2008).
# Assays:
# [1] = Chlorine loading of coated, chlorinated surfaces by iodometric/thiosulfate titration; type: physicochemical; settings: for average chlorine loading on the swatches: 10% CLOROX 30 min; for chlorine content: chlorinated in household washing machine; for chlorine bound to hard surface: 10% CLOROX
# Protocol: Swatches of Style 400 Bleached 100% Cotton Print Cloth (Testfabrics, Inc.) were treated with 3-triethoxysilylpropyl-5,5-dimethylhydantoin, prepared as described in Example 1, in the following manner. A treatment bath was prepared containing 5.0 g of 3-triethoxysilylpropyl-5,5-dimethylhydantoin, 3.0 g of potassium thiocyanate, 50 mL of ethanol, and 50 mL of water. After 1 hour of equilibration of the bath mixture, the cotton swatches were soaked in the bath for 10 min. After partially drying in air at ambient temperature, the swatches were cured for 1 hour at 95° C. The swatches were then soaked in a 0.5% liquid detergent solution for 15 min, rinsed with tap water, and allowed to dry in air at ambient temperature. […] The swatches were stored in a vacuum desiccator until use.
# The siloxane polymer described above was coated onto 100% cotton fabric. This was accomplished by soaking swatches of the material for about 2 minutes at ambient temperature in a bath containing 5 g of the polysiloxane, 70 mL of ethanol, and 40 mL of water. The swatches were cured at 130° C. in air for 20 minutes, then soaked in 1.5% liquid detergent for 15 minutes at ambient temperature, and then rinsed thoroughly with water. […] An iodometric/thiosulfate titration indicated a chlorine loading on the cotton material of about 0.42%.
# Finally, a wash test was performed on swatches of cotton containing the monomer 3-triethoxysilylpropyl-5,5-dimethylhydantoin coating and the polysiloxane coating, each chlorinated and unchlorinated, for comparison purposes. Two treatment baths were prepared, one containing an 8% solution of 3-triethoxysilylpropyl-5,5-dimethylhydantoin in a 50% solution of ethanol in water, the other containing an 8% solution of siloxane polymer prepared as described above in a 66.7% solution of ethanol in water. Identical cotton swatches were soaked in the two baths for 2.5 minutes at ambient temperature, cured in air at 130° C. for 20 minutes, soaked in 1.5% liquid detergent at ambient temperature for 15 minutes, rinsed thoroughly with water, and dried in air at 50° C. for 30 minutes. Then one-half of the swatches of each type were chlorinated by soaking them in 5% CLOROX at ambient temperature for 45 minutes. These chlorinated samples were rinsed thoroughly with water and dried in air at 50° C. for 30 minutes to remove all occluded free chlorine. Iodometric/thiosulfate titrations were performed on representative samples to determine initial chlorine loadings. The average chlorine loading for the silane monomer-coated samples was 0.61%; for the siloxane polymer-coated samples, the average chlorine loading was 0.40%. Then all types of coated swatches were subjected to laundry washing cycles using AATCC Test Method 61 (Test 2A Procedure). Samples were evaluated after 5, 10, and 50 washing cycles for retention of the coatings. Those samples not chlorinated before washing were chlorinated by the procedure described above in order to assess how much chlorine could be loaded after variable numbers of washing cycles. Those chlorinated before washing were divided into two groups with half being assessed for chlorine loading without rechlorination, the other half being rechlorinated and then assessed for chlorine loading. Three observations are clearly evident from the data in Table 3. First, both the silane and the siloxane coatings are partially lost upon successive washings. Second, prechlorination reduces the rate of loss, probably due to increasing the hydrophobicity of the surface, thus reducing the rate of hydrolysis loss of the siloxane coatings. Third, the siloxane coating, which is not chlorinated to as high a level as the silane one upon initial chlorination, is lost at a slower rate than is the silane coating. For all of the coatings, at least partial biocidal efficacy would be regenerated upon rechlorination after 50 washing cycles. […]
# [2] = system: spores of Aspergillus niger (ATCC # 1004); assay: Antifungal activity of chlorinated coated surfaces; type: cell-based
# Protocol: Soft and hard surfaces were treated by exposure to a solution of 3-triethoxysilylpropyl-5,5-dimethylhydantoin, prepared as described in Example 1. The soft surfaces used for detection of antifungal properties were woven textiles composed of fibers of polypropylene, cotton (cellulose), polyester, rayon, and slabs from a cellulose kitchen sponge. Hard surfaces prepared were polyvinylchloride (PVC) sheets, and porcelain and marble tiles. Challenge inocula of prepared surfaces consisted of aliquots of stock suspensions of spores of Aspergillus niger (ATCC # 1004), a black mold, harvested from cultured lawns on Potato Dextrose Agar (PDA) plates. Methods for preparation of the halogen charged surfaces and protocols for challenge were as described in Example 11. In this case recovery of Aspergillus was accomplished by the plate dilution method on PDA, and the results were expressed as log 10 reductions compared to the controls. Contact times varied from 24-72 hours, considerably longer than was allowed for other organisms because of the well established durability of black mold spores under a wide range of physical and chemical conditions.
smiles,measurement,setting,value
"CCO[Si](CCCN1C(=O)NC(C)(C)C1=O)(OCC)OCC [3-triethoxysilylpropyl-5,5-dimethylhydantoin]",chlorine on hard surface,[1]; PVC (Example 12),4.1 μg per cm^2
same,average initial chlorine loading before washing,"[1]; cotton, 8% treatment bath, cured 130° C. 20 min, 5% CLOROX 45 minutes",0.61%
same,average chlorine loading on the swatches,"[1]; cotton, KSCN in treatment bath",0.61±0.14%
same,chlorine content,[1]; cotton,approximately 4000 ppm Cl^+
same,average chlorine loading on the swatches,"[1]; cotton, without KSCN",0.49±0.07%
same,chlorine bound to hard surface,[1]; marble tile,6.9 μg Cl^+ per square cm
same,chlorine on hard surface,[1]; marble tiles (Example 12),6.9 μg per cm^2
same,chlorine bound to hard surface,[1]; porcelain tile,3.3 μg Cl^+ per square cm
same,chlorine concentration on soft surface,[1]; rayon fabrics (Example 12),4000 ppm
same,chlorine content,[1]; sponge slabs,1000-2000 ppm
same,chlorine concentration on soft surface,[1]; synthetic fibers (Example 12),approximately 800 ppm
same,log 10 reduction in mold concentration,"[2]; cotton, contact 24 hours",8 logs
same,log 10 reduction in mold concentration,"[2]; marble, 72 hours after spore inoculation",4 log
same,log 10 reduction in mold concentration,"[2]; porcelain, 72 hours after spore inoculation",5 log
same,log 10 reduction in mold concentration,"[2]; sponge slabs, contact 24 hours",4 log
same,log 10 reduction in mold concentration,"[2]; synthetic fibers (polypropylene, polyester), 72 hours of contact",5 logs
same,log 10 reduction in mold concentration,"[2]; vinyl, 72 hours after spore inoculation",4 log
